Measured values published in US20260223850A1, “SUBSTITUTED PYRROLIDONE COMPOUND, PREPARATION METHOD THEREFOR, COMPOSITION AND APPLICATION THEREOF” (QINGDAO KINGAGROOT CHEMICAL COMPOUND CO., LTD., priority 2023, published 2026).
Read-outs that look alike come from different tables or passages of the source.

What was measured:
Type in all cases: in vivo
weeds [1] = experiment: Activity assay of compositions, post-emergence spray treatment of stems and leaves (F); conditions: F
Protocol: (§1) The required active ingredient B was purchased from a reagent company or a technical material manufacturer or synthesized by a conventional method. The technical materials were all dissolved with acetone solvents and diluted with aqueous solution of 0.1% Tween® 80 emulsifier, which should be used immediately after dilution.
Weeds were cultivated by the pot culture method. […] Weed seeds with plump and uniform grains were selected, soaked in lukewarm water at 25° C. for 6 hours, and accelerated to germinate in a 28° C. biochemical incubator (in darkness). The weed seeds that had just germinated were evenly placed on the surface of the soil and then covered with 0.5-1 cm soil according to the sizes of seeds.
The weeds were cultured in a controllable sunlight greenhouse at 20-30° C., in natural light and with relative humidity of 57%-72%.
Each treatment was repeated 4 times. Three pots with 20 weed seeds sowed per pot were treated each time.
The drug was applied once in total in the experiment. When at 1.5-2 leaf stage, the weeds were thinned out to maintain 10 strains per pot. Thirty strains were kept in each treatment and then continued to be cultured until the 3-4 leaf stage for further treatment.
The well-cultured test materials were evenly placed on a 0.5 m^2 platform and foliage-sprayed by the 3WP-2000-type walking spray tower at a dosage of […] and a spray pressure of 0.3 MPa. After all the drug solution was sprayed, the air valve was closed. And 30 seconds later, the door of the spray tower was opened, and the nutritional bowl was taken out. Next, the air valve was opened, and the spray tube was cleaned by spraying 50 mL of water. The test materials were transferred to and routinely cultured in a greenhouse after the treatment.
(§2) A method for investigating absolute numbers was employed. The whole seedlings of the survival weeds were cut along the soil surface with a blade, and the fresh weight of the weeds was weighed by an analytical balance. For dead weeds, the fresh weight thereof was considered zero.
(§3) The investigation was performed 21 days after the treatment for once in total.
(§4) The theoretical fresh weight inhibition rate of a mixed combination of each treatment was calculated by the Gowing method (E0═X+Y−X*Y/100), then compared with the measured inhibition rate (E) to evaluate the type of the combined action of the combination of the two on weeds. The combined action was a synergistic effect when E−E0 >10%; an antagonistic effect when E−E0<−10%; an additional effect when −10%≤E−E0≤10%. An optimal ratio was determined according to factors such as actual control effects, characteristics of herbicides, balance of the formulation, etc. In the formula, X represents the fresh weight inhibition rate of the active ingredient A in a dosage of P; Y represents the fresh weight inhibition rate of the active ingredient B in a dosage of Q. The statistical results are shown in Table 6.

Mythimna separata = experiment: Insecticidal activity assay, spraying method; conditions: 3rd instar, spray, 48 h after drug application
Protocol: (§5) Spraying method: the technical material was weighed and dissolved with acetone, and the drug liquid was diluted with distilled water to different concentrations. The 2nd instar Spodoptera frugiperda test insects or the 3rd instar Mythimna separata test insects reared indoors with consistent physiological conditions were selected. Ten test insects were picked into each petri dish. Two 2 cm-long corn leaves were placed in the petri dish and sprayed using a spray tower. Each dosage was repeated 3 times, with acetone of the corresponding concentration as a control. After drug application, the insects were transferred to and reared in a condition where the temperature was 25° C. and the humidity was 60%. The results were investigated 48 h after drug application and the death number per treatment was collected, respectively. The mortality was calculated in accordance with the following equation: Mortality (%)=(Number of dead insects/Number of test insects)×100.

Leptochloa chinensis = experiment: Seedling stage sealing experiment for water-seeding; conditions: 120 g a.i./ha, 15 days, fresh weight control rate
Outline: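 Seeds sown in soil-filled bowls kept moist in water-filled boxes; compound in acetone diluted with water and spray-applied at 120, 60, 30 and 15 g a.i./ha, triplicate. After 15 days in greenhouse, fresh-weight growth control scored on a 0–9 scale (9 = dead, 0 = no effect), averaged.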

Echinochloa crusgalli = experiment: as above; conditions: 120 g a.i./ha, seedling stage sealing, 15 days, fresh weight control rate
Digitaria sanguinalis = experiment: as above; conditions: 120 g a.i./ha, seedling stage sealing, 15 days, fresh weight control rate
Outline: (§6)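 Seeds sown on soil in pots kept moist in water-filled boxes, then sprayed with acetone/water compound solution at 120, 60, 30 and 15 g a.i./ha, in triplicate. Effect scored after 15 days in greenhouse as 0–9 levels of fresh-weight growth control, averaged.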

Spodoptera frugiperda = experiment: Insecticidal activity assay, spraying method; conditions: 2nd instar, spray, 48 h after drug application; for Spodoptera frugiperda/% (mortality): 500 ppm
Protocol: as §5

Huaidao (rice cultivar) = experiment: Seedling stage sealing experiment for water-seeding (crop safety); conditions: 120 g a.i./ha, seedling stage sealing, 15 days, fresh weight control rate
Outline: as §6

weeds [2] = experiment: Activity assay of compositions, soil sealing treatment (S)
Source text: as §1
The test soil was quantitatively filled to ¾ of a pot, and then watered from the bottom of the pot to completely wet the soil to saturation. The seeds of the test weeds were accelerated to Just germinate, and then evenly and quantitatively broadcasted on the soil surface, covered with 0.5-1 cm soil according to the sizes of the seeds, and ready for use 72 hours after broadcasting.
Each treatment was repeated 4 times. Four pots were treated each time with 20 weed seeds per pot.
The seeds were planted in a 20 cm*30 cm square box. Water was added to 2-3 cm deep after sowing, then injected with the drug agent using a syringe, stirred evenly, and left to stand for 2 days to dry naturally. The soil was kept moist afterwards.
as §2, §3
as §4, with “etc.” for “etc. In the formula, X represents the fresh weight inhibition rate of the active ingredient A in a dosage of P; Y represents the fresh weight inhibition rate of the active ingredient B in a dosage of Q. The statistical results are shown in Table 6.”

[3] = Alisma plantago-aquatica, B 30 g a.i./ha
[4] = Alisma plantago-aquatica, B 60 g a.i./ha
[5] = Alisma plantago-aquatica, S, B 3.75 g a.i./ha
[6] = Alisma plantago-aquatica, S, B 7.5 g a.i./ha
[7] = soil, Rotala indica, S, B 150 g a.i./ha, read-out: Control effect of B applied alone in a corresponding dose (%)
[8] = Rotala indica, soil, read-out: Control effect of B applied alone in a corresponding dose (%)
[9] = Rotala indica, S, B 30 g a.i./ha
[10] = Paspalum distichum, soil, read-out: Control effect of B applied alone in a corresponding dose (%)
[11] = Rotala indica, S, B 15 g a.i./ha

Compound: COCCOC(=O)c1nc(-c2ccc(C(F)(F)F)c(OC)c2F)nc(N)c1OC
- Control effect of B applied alone in a corresponding dose (%) (weeds [1]; Alisma plantago-aquatica, B 3.75 g a.i./ha): 43.5%
- Control effect of B applied alone in a corresponding dose (%) (weeds [1]; Alisma plantago-aquatica, B 7.5 g a.i./ha): 57.2%

Compound: C[C@@H](Oc1nc(F)c(Cl)c(N)c1Cl)C(=O)OCC1CCCO1 (stereo partly drawn)
- Control effect of B applied alone in a corresponding dose (%) (weeds [1]; [3]): 38.7%
- Control effect of B applied alone in a corresponding dose (%) (weeds [1]; [4]): 45.6%

Compound: Cc1cc(C)cc([C@H]2CN(C)C(=O)[C@@H]2C(=O)Nc2cnn(C)c2C2CC2)c1 [277′]
- Mythimna separata/% (mortality) (Mythimna separata; 100 ppm): 95%
- Leptochloa chinensis activity level (growth control rate) (Leptochloa chinensis): 9
- Echinochloa crusgalli activity level (growth control rate) (Echinochloa crusgalli): 9
- Digitaria sanguinalis activity level (growth control rate) (Digitaria sanguinalis): 6 (Level 6: growth control rate greater than or equal to 70% and less than 80%)

Compound: Cc1cc(C)cc([C@H]2CN(C)C(=O)[C@@H]2C(=O)Nc2cnn(C)c2-c2ccc(Cl)cc2)c1 [281′]
- Mythimna separata/% (mortality) (Mythimna separata; 500 ppm): 60%

Compound: Cc1cc([C@H]2CN(C)C(=O)[C@@H]2C(=O)Nc2cnn(C)c2Cl)nn1C(F)F [340′]
- mortality at 500 ppm (Mythimna separata; Mythimna separata, 500 ppm): 100%
- mortality at 500 ppm (Spodoptera frugiperda; Spodoptera frugiperda): 87%

Compound: Cc1cc(C)cc([C@H]2CN(C)C(=O)[C@@H]2C(=O)Nc2cnn(-c3ccccc3)c2Cl)c1 [421′]
- Mythimna separata/% (mortality) (Mythimna separata; 500 ppm): 75%
- Spodoptera frugiperda/% (mortality) (Spodoptera frugiperda): 65%
- Echinochloa crusgalli activity level (growth control rate) (Echinochloa crusgalli): 9
- Huaidao (rice cultivar) plant damage level (Huaidao (rice cultivar)): 0

Compound: Cc1cc(C)cc([C@H]2CN(C)C(=O)[C@@H]2C(=O)Nc2cnn(C(=O)OC(C)(C)C)c2Cl)c1 [491′]
- Mythimna separata/% (mortality) (Mythimna separata; 500 ppm): 70%
- Spodoptera frugiperda/% (mortality) (Spodoptera frugiperda): 60%

Compound: Cc1cc(C)cc([C@H]2CN(C)C(=O)[C@@H]2C(=O)Nc2cnn(C)c2C=O)c1 [500′]
- Mythimna separata/% (mortality) (Mythimna separata; 500 ppm): 70%
- Spodoptera frugiperda/% (mortality) (Spodoptera frugiperda): 60%

Compound: Cc1ccc([C@H]2CN(C)C(=O)[C@@H]2C(=O)Nc2cnn(C)c2Cl)o1 [522′]
- Mythimna separata/% (mortality) (Mythimna separata; 500 ppm): 70%
- Spodoptera frugiperda/% (mortality) (Spodoptera frugiperda): 60%

Compound: CC(C)N1C(=O)c2ccccc2NS1(=O)=O [Bentazone, bentazone, reference compound]
- Control effect of B applied alone in a corresponding dose (%) (weeds [1]; Paspalum distichum, B 375 g a.i./ha): 29.2%
- Control effect of B applied alone in a corresponding dose (%) (weeds [1]; Paspalum distichum, B 750 g a.i./ha): 36.7%

Compound: COc1c(Cl)ccc(-c2nc(C(=O)OCc3ccccc3)c(Cl)c(N)c2F)c1F [Florpyrauxifen-benzyl, florpyrauxifen-benzyl]
- Control effect of B applied alone in a corresponding dose (%) (weeds [2]; [5]): 62.8%
- Control effect of B applied alone in a corresponding dose (%) (weeds [2]; [6]): 74.6%

Compound: Nc1c(Cl)c(F)nc(OCC(=O)O)c1Cl [Fluroxypyr, fluroxypyr, reference compound]
- Control effect of B applied alone in a corresponding dose (%) (weeds [1]; [3]): 52.5%
- Control effect of B applied alone in a corresponding dose (%) (weeds [1]; [4]): 65.8%

Compound: COC(=O)c1nc(-c2ccc(Cl)c(OC)c2F)cc(N)c1Cl [Halauxifen-methyl, halauxifen-methyl]
- Control effect of B applied alone in a corresponding dose (%) (weeds [2]; [5]): 58.4%
- Control effect of B applied alone in a corresponding dose (%) (weeds [2]; [6]): 68.9%

Compound: CN(C(=O)COc1nc2ccccc2s1)c1ccccc1 [Mefenacet, mefenacet]
- pest or weed control at 150 g/ha (weeds [2]; [7]): 38.4%
- pest or weed control at 300 g/ha (weeds [2]; soil, Rotala indica, S, B 300 g a.i./ha, read-out: Control effect of B applied alone in a corresponding dose (%)): 58.3%

Compound: CC(C)Oc1cc(-n2nc(C(C)(C)C)oc2=O)c(Cl)cc1Cl [Oxadiazon, oxadiazon]
- pest or weed control at 30 g/ha (weeds [2]; soil, Rotala indica, S, B 30 g a.i./ha, read-out: Control effect of B applied alone in a corresponding dose (%)): 50.5%
- pest or weed control at 60 g/ha (weeds [2]; soil, Rotala indica, S, B 60 g a.i./ha, read-out: Control effect of B applied alone in a corresponding dose (%)): 68.7%

Compound: CC1=C(c2ccccc2)C(=O)N(C(C)(C)c2cc(Cl)cc(Cl)c2)CO1 [Oxaziclomefone, oxaziclomefone]
- pest or weed control at 7.5 g/ha (weeds [2]; soil, Paspalum distichum, S, B 7.5 g a.i./ha, read-out: Control effect of B applied alone in a corresponding dose (%)): 36.9%
- pest or weed control at 15 g/ha (weeds [2]; soil, Paspalum distichum, S, B 15 g a.i./ha, read-out: Control effect of B applied alone in a corresponding dose (%)): 48.5%

Compound: CCOc1cc(Oc2ccc(C(F)(F)F)cc2Cl)ccc1[N+](=O)[O-] [Oxyfluorfen, oxyfluorfen]
- pest or weed control at 7.5 g/ha (weeds [2]; soil, Rotala indica, S, B 7.5 g a.i./ha, read-out: Control effect of B applied alone in a corresponding dose (%)): 51%
- pest or weed control at 15 g/ha (weeds [2]; soil, Rotala indica, S, B 15 g a.i./ha, read-out: Control effect of B applied alone in a corresponding dose (%)): 69.3%

Compound: CC(C)=C1OC(=O)N(c2cc(OC3CCCC3)c(Cl)cc2F)C1=O [Pentoxazone, pentoxazone]
- pest or weed control at 30 g/ha (weeds [2]; [8]): 55.3%
- pest or weed control at 60 g/ha (weeds [2]; [8]): 62.7%

Compound: CCCOCCN(C(=O)CCl)c1c(CC)cccc1CC [Pretilachlor, pretilachlor]
- pest or weed control at 75 g/ha (weeds [2]; soil, Rotala indica, S, B 75 g a.i./ha, read-out: Control effect of B applied alone in a corresponding dose (%)): 54.2%
- pest or weed control at 150 g/ha (weeds [2]; [7]): 63.9%

Compound: CCC(=O)Nc1ccc(Cl)c(Cl)c1 [Propanil, propanil, reference compound]
- Control effect of B applied alone in a corresponding dose (%) (weeds [1]; Paspalum distichum, B 300 g a.i./ha): 48.3%
- Control effect of B applied alone in a corresponding dose (%) (weeds [1]; Paspalum distichum, B 600 g a.i./ha): 56.1%

Compound: C#CCN(C)c1c(C#N)cnn1-c1nn2c(c1Cl)CCCC2 [Pyraclonil, pyraclonil]
- Control effect of B applied alone in a corresponding dose (%) (weeds [2]; [9]): 48.2%
- Control effect of B applied alone in a corresponding dose (%) (weeds [2]; Rotala indica, S, B 60 g a.i./ha): 63.4%

Compound: CCNc1nc(NCC)nc(SC)n1 [Simetryn, simetryn]
- pest or weed control at 75 g/ha (weeds [2]; [10]): 45.5%
- pest or weed control at 150 g/ha (weeds [2]; [10]): 54.8%

Compound: CS(=O)(=O)c1ccc(C(=O)C2C(=O)CCCC2=O)c(Cl)c1COCC1CCCO1 (stereo not drawn) [Tefuryltrione, tefuryltrione]
- Control effect of B applied alone in a corresponding dose (%) (weeds [2]; [11]): 30.8%
- Control effect of B applied alone in a corresponding dose (%) (weeds [2]; [9]): 45.2%

Compound: oxadiargyl
- Control effect of B applied alone in a corresponding dose (%) (weeds [2]; Rotala indica, S, B 7.5 g a.i./ha): 47.2%
- Control effect of B applied alone in a corresponding dose (%) (weeds [2]; [11]): 58.6%
